Results on six molecules are retold here after patent US11046721B2, “Ruthenium-based photolinkers and methods of use” (The Trustees of the University of Pennsylvania, priority 2014, dated 2021).

The conditions of data set [1]: reported, Zayat et al. 2003; cited from earlier work.
The test system of data set [2] is chordin (chd). The experiment in a line: chd knockdown phenotype in microinjected zebrafish embryos. The following applies: incubated in the dark; for Phenotype of embryos: injected at 1-cell stage, 24-28 hpf. The data set is classed as in vivo. On the procedure:
FIG. 15 is a series of images depicting zebrafish, including the chd-MO knockdown phenotype. Zebrafish embryos were injected at the 1-cell stage with 0.51 mM chd-MO and imaged at 24 hpf. […] Embryos scored as normal had V-shaped somites, and normal head and tail development. Severe was identified by decreased head size, U-shaped somites, and a large blood island on the tail. The moderate and mild phenotypes were identified by U-shaped somites and a medium or small blood island on the tail.
(§1) FIG. 16A is an image of a wildtype embryo, uninjected. […] All embryos were injected at 1-cell stage. […] MO Control: Zebrafish embryos were injected at the 1-cell stage with 0.25 mM ntl-MO and imaged at 24 hpf. Ru-MO-ntl: Zebrafish embryos were injected at the 1-cell stage with 0.25 mM Ru-MO-ntl. Half of the embryos were irradiated (450 nm, 14 mW/cm^2, 5 min) at 1 hpf, while the other half were incubated in the dark. Embryos were scored for phenotype at 24 hpf and compared to wildtype.
Zebrafish embryos were obtained. All embryos obtained were TLF×TLF WT. Zebrafish embryo injection solutions were prepared to contain a final concentration of 0.1 M KCl and 0.25% phenol red dye. All injections were performed at the one-cell stage and injected into the cell compartment only. A Harvard Apparatus PLI-100 pico-injector was used to inject controlled volumes. Injection volume was calibrated to dispense 5 nL per embryo. Zebrafish embryos were incubated at 28° C. in E3 zebrafish medium. […]
MO-chd or Ru-cMO-chd (514 pmol/μL) was microinjected into 1-cell-stage zebrafish embryos, which were incubated at 28° C. in the dark and at 24 hours post-fertilization (hpf), scored for phenotypic response and imaged using a previously reported method (Westerfield, from “The Zebrafish Book. A guide for the Laboratory Use of Zebrafish (Danio rerio).” 4th ed.; University of Oregon Press, 2000). Embryos scored as normal had V-shaped somites, and normal head and tail development. […]

Data set [3] can be described thus: Selective photoactivation of Ru photolinkers (FIG. 25B). The data set is classed as physicochemical. The text has this:
FIG. 25, comprising FIG. 25A-25B, depicts exemplary compounds of the invention.
Compounds [Ru(bpy)2(4-pentynenitrile)2][Cl]2 (Ru420) and [Ru(biq)2(4-pentynenitrile)2][Cl]2 (Ru530) are compounds of the invention which are useful for multiplexing of DNA and morpholino oligonucleotides (FIG. 25A).

The conditions of data set [4]: 450-nm light, 53 mW/cm^2, 80 μM, 1.5 mL, stirred.
Method: Light source: 450 nm laser (14 mW/cm^2), 14 μM RuBEP in water, 0.2 OD.
A sapphire Galaxy Blue handheld laser was purchased from Beam of Light Technologies (Oregon, USA) and used to determine the quantum yield of RuBEP. Measured power at the sample was 53 mW/cm^2, with a maximum output wavelength of 450 nm.
Photodissociation of 3EP from RuBEP was monitored by LCMS (FIG. 4), UV-Vis (FIG. 6B) and ^1H and ^13C NMR (FIG. 5) spectroscopies. Upon continuous irradiation with 450-nm light (53 mW/cm^2, focused to 0.5 cm^2), the λmax red-shifted from 450 nm to 473 nm (FIG. 6B).
The formula for fitting the initial kinetics of the photoreaction is as follows:
[formula] Where: P1=net power of the laser during the trial (mW) E=energy of 450 nm light (J/photon) εs=extinction coefficient of RuBEP (starting material) at 475 nm=1800 M^−1cm^−1 εp=extinction coefficient of Rubpy2(3EP)(H2O)(product) at 475 nm=3800 M^−1cm^−1
Data set [5] deals with notail (ntl). Briefly: ntl knockdown phenotype in microinjected zebrafish embryos. The data set is classed as in vivo. Particulars: 0.25 mM injected at 1-cell stage, 24 hpf. On the procedure:
as §1
FIG. 17 is a series of images depicting zebrafish, including the ntl-MO knockdown phenotype. Zebrafish embryos were injected at the 1-cell stage with 0.25 mM ntl-MO and imaged at 24 hpf. […] Class 2 was identified by U-shaped somites, a shortened posterior axis, with the notochord still present.
FIG. 19 is a graph depicting Ru-cMO-ntl in vivo data. MO Control:Zebrafish embryos were injected at the 1-cell stage with 0.25 mM ntl-MO and imaged at 24 hpf. Ru-cMO-ntl:Zebrafish embryos were injected at the 1-cell stage with 0.25 mM Ru-cMO-ntl. Half of the embyros were irradiated (450 nm, 14 mW/cm^2, 5 min) at 1 hpf, while the other half were incubated in the dark. Embryos were scored for phenotype at 24 hpf and compared to wildtype.
Zebrafish embryos were obtained. All embryos obtained were TLF×TLF WT. […]

In the case of `[Cl-].[Cl-].[Ru+2].c1ccc(-c2ccccn2)nc1.c1ccc(-c2ccccn2)nc1.c1ccncc1.c1ccncc1` [Ru(bpy)2(pyr)2Cl2], the “Quantum yield of ligand exchange” value in data set [1] is reported as 0.4. “MO-chd: linear antisense morpholino targeting chordin, ATCCACAGCAGCCCCTCCATCATCC (SEQ ID NO: 4) (all phosphorodiamidate morpholino (PMO))”: the “Embryos with normal phenotype” value in data set [2] (MO-chd control injections, 24 hpf) is approximately 5%. Besides, the Phenotype of embryos result in data set [2] (listed as Bis-azido chd-MO) is “chd knockdown phenotype”; in data set [2] (listed as chd-MO) it was “severe to mild”. Consider “[Ru(bipyridine)2(3-ethynyl- pyridine)2]^2+ [RuBEP]”, for which the Selective activation result in data set [3] is recorded as “can be selectively activated”. Further, the “Time to complete photolysis of bulk solution” value in data set [4] amounted to 5 min. “[Ru(bipyridine)2(4- pentynenitrile)2]^2+ [Ru420]”: the Selective activation entry in data set [3] is recorded as “can be selectively activated”.

As to “[Ru(biquinoline)2(4- pentynenitrile)2]^2+ [Ru530]”, the Selective activation result in data set [3] is reported as “can be selectively activated”. As to “ntl-MO: linear antisense morpholino targeting notail, AGCTTGAGATAAGTCCGACGATCCT (SEQ ID NO: 7) (all phosphorodiamidate morpholino (PMO))”, the ntl knockdown phenotype result in data set [5] is “severe (class 4) to mild (class 2)”.
